Reference: patent US8629328B2 (Monsanto Technology LLC, priority 2006, dated 2014)
Several values for one entry are separate records, joined by “and”; a condition that tells them apart may be missing. Equal values may be shown once. Read-outs that look alike come from different tables or passages of the source.

Tested on: soybean plants containing DMO-encoding polynucleotide construct (Events 1-5)
Description: Non-transgenic and transgenic soybean seeds were planted around the beginning of the growing season at the time of optimum growth conditions depending on soil moisture, temperature, and seeding depth. […] The design details were as follows: 6 locations, 2 replications/location, 2 rows/plot, row length 12 feet (+3 ft alley), 9 seeds/foot, 108 seeds/row, 5 events (Events 1-4 and a fifth event that was segregating); and 4 treatments as shown below in Table 5. In all 240 plots were planted at 6 locations (40 per location).
Four non-transgenic border rows were planted all around the trial using a known commercial line such as A3525. Optimum production and management practices known in the art were followed. […] The field was irrigated as needed according to standard practices.
Seed planting and pre-emergence treatment were carried out approximately one-month apart in late spring in Monmouth, Ill.

[1] = Event 1, Post at V3: 1.5 lb/acre 4 weeks after planting
[2] = Event 1, Pre & Post: 1.5 lb/acre at planting and 1.5 lb/acre 4 weeks after planting
[3] = Event 1, Pre at sowing: 1.5 lb/acre at planting
[4] = Event 2, Post at V3: 1.5 lb/acre 4 weeks after planting
[5] = Event 2, Pre & Post: 1.5 lb/acre at planting and 1.5 lb/acre 4 weeks after planting
[6] = Event 2, Pre at sowing: 1.5 lb/acre at planting
[7] = Event 3, Post at V3: 1.5 lb/acre 4 weeks after planting
[8] = Event 3, Pre & Post: 1.5 lb/acre at planting and 1.5 lb/acre 4 weeks after planting
[9] = Event 3, Pre at sowing: 1.5 lb/acre at planting
[10] = Event 4, Post at V3: 1.5 lb/acre 4 weeks after planting
[11] = Event 4, Pre & Post: 1.5 lb/acre at planting and 1.5 lb/acre 4 weeks after planting
[12] = Event 4, Pre at sowing: 1.5 lb/acre at planting
[13] = Event 5 (segregating), Post at V3: 1.5 lb/acre 4 weeks after planting
[14] = Event 5 (segregating), Pre & Post: 1.5 lb/acre at planting and 1.5 lb/acre 4 weeks after planting
[15] = Event 5 (segregating), Pre at sowing: 1.5 lb/acre at planting

Question: What does the source list for `COc1c(Cl)ccc(Cl)c1C(=O)O` [dicamba, 3,6-dichloro-o-anisic acid]?
Answer: % GR 6/27 [1]: 0%; % GR 7/5 [1]: 0%; % Inj 6/7 [1]: 0%; % Inj 6/13 [1]: 0%; % Inj 6/20 [1]: 0%; % Inj 6/27 [1]: 5% and 7%; % Inj 7/5 [1]: 0%; % GR 6/27 [2]: 0% and 3%; % GR 7/5 [2]: 0%; % Inj 6/7 [2]: 0%; % Inj 6/13 [2]: 0% and 2%; % Inj 6/20 [2]: 0% and 2%; % Inj 6/27 [2]: 5%; % Inj 7/5 [2]: 0%; % GR 6/27 [3]: 0%; % GR 7/5 [3]: 0%; % Inj 6/7 [3]: 0%; % Inj 6/13 [3]: 0% and 2%; % Inj 6/20 [3]: 0%; % Inj 6/27 [3]: 1% and 2%; % Inj 7/5 [3]: 0%; Dead or Stunted [3]: 0; % GR 6/27 [4]: 0%; % GR 7/5 [4]: 0%; % Inj 6/7 [4]: 0%; % Inj 6/13 [4]: 0%; % Inj 6/20 [4]: 0%; % Inj 6/27 [4]: 3%; % Inj 7/5 [4]: 0% and 2%; % GR 6/27 [5]: 0%; % GR 7/5 [5]: 0%; % Inj 6/7 [5]: 0%; % Inj 6/13 [5]: 0%; % Inj 6/20 [5]: 0%; % Inj 6/27 [5]: 1% and 2%; % Inj 7/5 [5]: 2% and 0%; Dead or Stunted [5]: 0; % GR 6/27 [6]: 0%; % GR 7/5 [6]: 0%; % Inj 6/7 [6]: 0%; % Inj 6/13 [6]: 0%; % Inj 6/20 [6]: 0%; % Inj 6/27 [6]: 5% and 2%; % Inj 7/5 [6]: 0%; Dead or Stunted [6]: 0; % GR 6/27 [7]: 3% and 0%; % GR 7/5 [7]: 0%; % Inj 6/7 [7]: 0%; % Inj 6/13 [7]: 0%; % Inj 6/20 [7]: 0%; % Inj 6/27 [7]: 3% and 5%; % Inj 7/5 [7]: 0% and 3%; Dead or Stunted [7]: 0; % GR 6/27 [8]: 0%; % GR 7/5 [8]: 0%; % Inj 6/7 [8]: 0%; % Inj 6/13 [8]: 0% and 2%; % Inj 6/20 [8]: 0%; % Inj 6/27 [8]: 3%; % Inj 7/5 [8]: 2% and 0%; Dead or Stunted [8]: 0; % GR 6/27 [9]: 0%; % GR 7/5 [9]: 0%; % Inj 6/7 [9]: 0%; % Inj 6/13 [9]: 4% and 2%; % Inj 6/20 [9]: 0%; % Inj 7/5 [9]: 0% and 3%; Dead or Stunted [9]: 0; % GR 6/27 [10]: 0%; % GR 7/5 [10]: 0%; % Inj 6/7 [10]: 0%; % Inj 6/13 [10]: 0%; % Inj 6/20 [10]: 0%; % Inj 6/27 [10]: 3%; % Inj 7/5 [10]: 0%; Dead or Stunted [10]: 0; % GR 6/27 [11]: 8% and 3%; % GR 7/5 [11]: 2% and 0%; % Inj 6/7 [11]: 0%; % Inj 6/13 [11]: 0% and 1%; % Inj 6/20 [11]: 0%; % Inj 6/27 [11]: 3%; % Inj 7/5 [11]: 2% and 0%; Dead or Stunted [11]: 0; % GR 6/27 [12]: 0%; % GR 7/5 [12]: 0%; % Inj 6/7 [12]: 0%; % Inj 6/13 [12]: 3% and 4%; % Inj 6/20 [12]: 0%; % Inj 6/27 [12]: 5% and 2%; % Inj 7/5 [12]: 0%; Dead or Stunted [12]: 0; % GR 6/27 [13]: 0% and 5%; % GR 7/5 [13]: 0%; % Inj 6/7 [13]: 0%; % Inj 6/13 [13]: 0%; % Inj 6/20 [13]: 0%; % Inj 6/27 [13]: 7% and 5%; % Inj 7/5 [13]: 2%; Dead or Stunted [13]: 15; % GR 6/27 [14]: 5% and 0%; % GR 7/5 [14]: 0%; % Inj 6/7 [14]: 0%; % Inj 6/13 [14]: 15% and 10%; % Inj 6/20 [14]: 10%; % Inj 6/27 [14]: 3% and 1%; % Inj 7/5 [14]: 0%; Dead or Stunted [14]: 23 and 20; % GR 6/27 [15]: 0%; % GR 7/5 [15]: 0%; % Inj 6/7 [15]: 0%; % Inj 6/13 [15]: 15% and 8%; % Inj 6/20 [15]: 15% and 10%; % Inj 6/27 [15]: 5% and 2%; % Inj 7/5 [15]: 0%; Dead or Stunted [15]: 24 and 14; injury in field, overall (pre- and post-emergence applications of dicamba, all transgenic soybean plants): no or very little injury
